Consider 5 compounds from patent US20250206751A1, “HETEROCYCLIC COMPOUND FOR INDUCING DEGRADATION OF G12D MUTANT KRAS PROTEIN” (Astellas Pharma Inc., priority 2022, published 2025).

In test [1] the test system is phosphorylation of threonine 202 (Thr202) and tyrosine 204 (Tyr204) of ERK. As to the kind of experiment: ERK phosphorylation inhibitory effect by Cell ELISA in AsPC-1 (Test Example 2). It is filed as cell-based, human. The conditions noted are these: Homo sapiens, ASPC1, AsPC-1 cells, cultured overnight with compound; 1 μM trametinib taken as 0%. An outline of the steps: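 AsPC-1 cells (G12D KRAS) treated overnight with compound (10 points, 10 μM to 0.3 nM final), then glyoxal-fixed and immunostained for phospho-ERK with a fluorescent secondary read at 800 nm. IC50 by Sigmoid-Emax regression, with DMSO as 100% and 1 μM trametinib as 0%.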
(ELISA stands for enzyme-linked immunosorbent assay.)

The test system of test [2] is human G12D mutant KRAS-positive pancreatic cancer line AsPC-1. Nature of the test: Non-anchorage-dependent cell growth inhibition, spheroid 3D cell culture (Test Example 3). In kind it is cell-based. The conditions noted are these: AsPC-1 spheroid 3D culture, 6 days, CellTiter Glo 2.0. An outline of the steps: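 AsPC-1 spheroids, 5×10^2 cells per well on low-adhesion round-bottom plates in RPMI 1640/10% FBS, dosed next day at 10 or 6 points spanning 10 μM to 0.3 nM final for 6 days at 37° C., 5% CO2. Viability by CellTiter Glo 2.0 luminescence; IC50 by Sigmoid-Emax regression, DMSO 100% and cell-free medium 0%.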
On the technique in general: Cellular ATP, detected with luciferase, serves as a proxy for viable cell number.

For `Cc1ncsc1-c1ccc([C@H](CO)NC(=O)[C@@H]2C[C@@H](O)CN2C(=O)[C@H](C(C)C)n2cc(-c3ccc(COc4c(-c5c(C)c(F)cc6[nH]ncc56)c(C5CC5)cc5c(N(C)[C@H]6CCNC6)nc(OC[C@H]6CCCO6)nc45)cc3)nn2)cc1` (atropisomer, axis not shown; (M)) [Example 9, (4R)-1-[(2S)-2-{4-[4-({[(7M) 6-cyclopropyl-7-(6-fluoro-5-methyl-1H-indazol-4-yl)-4-{methyl[(3S)-pyrrolidin-3-yl]amino}-2-{[(2R)-oxolan-2-yl]methoxy}quinazolin-8-yl}oxy}methyl)phenyl]-1H-1,2,3-triazol-1-yl}-3-methylbutanoyl]-4-hydroxy-N-{(1R)-2-hydroxy-1-[4-(4-methyl-1,3-thiazol-5-yl)phenyl]ethyl}-L-prolinamide], the IC50 – broadly, the concentration that inhibits the measured activity by half – was 11 nM in test [1] and 9 nM in test [2] (Homo sapiens, ASPC1, 144 h).
Regarding `CO[C@@H](C)COc1cc(N(C)[C@H]2CCNC2)c2cc(C3CC3)c(-c3c(C)c(F)cc4[nH]ncc34)c(OCc3ccc(-c4cn([C@H](C(=O)N5C[C@H](O)C[C@H]5C(=O)N[C@@H](CO)c5ccc(-c6scnc6C)cc5)C(C)C)nn4)cc3)c2n1` (atropisomer, axis not shown; (M)) [Example 11, (4R)-1-[(2S)-2-{4-[4-({[(7M)-6-cyclopropyl-7-(6-fluoro-5-methyl-1H-indazol-4-yl)-2-[(2S)-2-methoxypropoxy]-4-{methyl[(3S)-pyrrolidin-3-yl]amino}quinazolin-8-yl]oxy}methyl)phenyl]-1H-1,2,3-triazol-1-yl}-3-methylbutanoyl]-4-hydroxy-N-{(1R)-2-hydroxy-1-[4-(4-methyl-1,3-thiazol-5-yl)phenyl]ethyl}-L-prolinamide], the IC50 amounted to 24 nM in test [1] and 19 nM in test [2].
With `CCn1nccc1-c1ccc([C@H](CO)NC(=O)[C@@H]2C[C@@H](O)CN2C(=O)[C@H](C(C)C)n2cc(-c3ccc(COc4c(-c5c(C)c(F)cc6[nH]ncc56)c(C5CC5)cc5c(N(C)[C@H]6CCNC6)nc(OC[C@H](C)OC)nc45)cc3)nn2)cc1` (atropisomer, axis not shown; (M)) [Example 13], the IC50 in test [1] turned out to be 8 nM; in test [2] (Homo sapiens, ASPC1, 144 h), 10 nM.
In the same order, the values of `CCN(c1nc(OC[C@H](C)OC)nc2c(OCc3ccc(-c4cn([C@H](C(=O)N5C[C@H](O)C[C@H]5C(=O)N[C@@H](CO)c5ccc(-c6scnc6C)cc5)C(C)C)nn4)cc3)c(-c3c(C)c(F)cc4[nH]ncc34)c(C3CC3)cc12)[C@H]1CCNC1` (atropisomer, axis not shown; (M)) [Example 50, (4R)-1-[(2S)-2-(4-{4-[({(7M)-6-cyclopropyl-4-{ethyl[(3S)-pyrrolidin-3-yl]amino}-7-(6-fluoro-5-methyl-1H-indazol-4-yl)-2-[(2S)-2-methoxypropoxy]quinazolin-8-yl}oxy)methyl)phenyl}-1H-1,2,3-triazol-1-yl)-3-methylbutanoyl]-4-hydroxy-N-{(1R)-2-hydroxy-1-[4-(4-methyl-1,3-thiazol-5-yl)phenyl]ethyl}-L-prolinamide] are 8 nM and 8 nM.
For the compound `CO[C@@H](C)COc1nc(N(C)[C@@H]2CCNC2)c2cc(C3CC3)c(-c3c(C)c(F)cc4[nH]ncc34)c(OCc3ccc(-c4cn([C@H](C(=O)N5C[C@H](O)C[C@H]5C(=O)N[C@@H](CO)c5ccc(-c6scnc6C)cc5)C(C)C)nn4)cc3)c2n1` (atropisomer, axis not shown; (M)) [Example 53], the IC50 in test [1] was 9 nM; in test [2] (Homo sapiens, ASPC1, 144 h), 10 nM.
